What was measured:
VM precursor cultures = assay: Real-time RT-PCR analysis of VM precursor cultures; type: cell-based, rat
Description: Briefly, ventral mesencephalic tissues were dissected from E14.5 Sprague-Dawley (SD) rats, and then dissociated enzymatically (0.1% trypsin) and mechanically. Cells were seeded into 24-well (1×10^5/cm^2) culture plates pre-coated with 20 μg/mL poly-D-lysine (Sigma-Aldrich), and were maintained in 0.5 mL/well of minimum essential medium (MEM) supplemented with 10% fetal bovine serum (FBS), 10% horse serum (HS), 1 g/L glucose, 2 mM L-glutamine, 1 mM sodium pyruvate, 100 μM nonessential amino acids, 100 U/mL penicillin, and 100 μg/mL streptomycin (all purchased from Invitrogen). Cultures were maintained at 37° C. in a humidified atmosphere of 5% CO2 and 95% air. For DA neuron differentiation, VM precursor cultures, four hours after seeding, were switched to Dulbecco's Modified Eagle's Medium (DMEM)/Ham's F12 (1:1) containing N2 supplement (Invitrogen, Carlsbad, Calif.), penicillin and streptomycin. Immediately following the switch to DMEM/F12 medium, VM precursor cells were treated with various concentration of rat UCN (from Sigma-Aldrich, St. Louis, Mo.) for the indicated periods. For neutralization of endogenous UCN bioactivity, anti-UCN antibody (15 μg/mL) (Santa Cruz Biotechnology, Santa Cruz, Calif.) was added to the VM precursor cultures.
(§1) Total RNA was extracted from VM tissues or cultured VM precursors with TRIzol® reagent (Invitrogen). One-step real-time RT-PCR analysis was performed to determine the expression of genes (Power SYBR® Green RNA-to-CT™ 1-step kit, Applied Biosystems, Foster City, Calif.). Threshold cycle (CO value for each test gene was normalized to the Ct value for the β-actin control from the same RNA preparations. The ratio of transcription of each gene was calculated as 2^−(ΔCt), where ΔCt is the difference Cr (test gene)−Ct (β-actin). The primers used herein are listed in Table 1.

[1] = tested on: Nurr1-transduced cortical NPCs; assay: Real-time RT-PCR of DA phenotype genes in Nurr1-transduced cortical NPCs; type: cell-based, rat; conditions: 0.5 μM UCN, 3 days
Description: TH promoter assay or lenti-virial transductions were carried out at 60%˜70% cell confluences (usually for 3 days) as described below. Cell differentiation was induced for 3 to 5 days by switching to mitogens-free DMEM/F12/N2 medium in the presence of 0.5 μM UCN. Differentiation medium was changed every other day.
(§2) For lenti-viral transduction, E13 cortical NPCs were incubated with lenti-viruses (25 multiplicity of infection) expressing Nurr1 or GFP containing poly-brene (hexadimethrine bromide, 1 μg/mL, Sigma-Aldrich) for 24 hours. After 1 day of further cell expansion in the presence of the mitogens, cells were induced to differentiate.
as §1

[2] = tested on: Nurr1-transduced cortical NPCs; assay: DA uptake assay in Nurr1-transduced cortical NPCs; type: cell-based, rat; conditions: 0.5 μM UCN, 4 days
Description: as §2
For DA uptake assay, cells were washed twice with warm Krebs-Ringer buffer (16 mM sodium phosphate, 119 mM NaCl, 4.7 mM KCl, 1.8 mM CaCl2, 1.2 mM MgSO4, 1.3 mM EDTA and 5.6 mM glucose, pH 7.4), and then incubated with 1 μM [^3H]-dopamine(DA)(60 Ci/mmol, PerkinElmer) in Krebs-Ringer buffer at 37° C. for 20 min. After washing with ice-cold Krebs-Ringer buffer, cells were collected in 1 N NaOH and radioactivity was counted with a liquid scintillation counter. Non-specific uptake was determined in parallel wells that received both the tritiated tracer and 10 μM mazindol. The specific [^3H] DA were calculated by subtracting the amount of radioactivity obtained in the presence of mazindol from that obtained in the absence of mazindol.

VM of E16.5 rat embryos = assay: In vivo DA neuron differentiation in VM of rat embryos (immuno-histochemistry)
Description: The pregnant rats on day 12.5 of gestation were intra-peritoneally injected with saline or 10 μg/kg UCN every 24 hours for 3 days (FIGS. 7H & 7I) or 4 days (FIGS. 7A, 7B, & 7E-7G) before sacrifice. FIG. 7A is an image of immuno-staining against TH of rat E16.5 mesencephalon. FIG. 7B is cell counting analysis of TH^+ cells in the VM of E16.5 saline and UCN-treated embryos (**p<0.01 compared with saline group). […] FIGS. 7H and 7I show histone H3 acetylation (H) and Nurr1 recruitments (I) at the TH promoter by ChIP analyses which were performed with chromatin prepared from E15.5 VM tissue of saline or UCN-treated embryos (*p<0.05; **p<0.01 compared with saline groups). Con: control medium.
For immuno-histochemistry, rat embryos were perfused with 4% paraformaldehyde, cryopreserved with 30% sucrose in PBS overnight, embedded in Tissue Tek OCT compound (Sakura Finetek, Torrance, Calif.), and then frozen at −80° C. For Nurr1 staining, the embryos were perfused with 4% paraformaldehyde/0.15% picric acid followed by soaking in the same solution overnight at 4° C. Coronal sections (16 μm thick) were blocked with 2% FBS and 3% normal goat or normal donkey serum for 1 h at room temperature, and subsequently incubated with primary antibodies overnight at room temperature. Primary antibodies were rabbit anti-Lmx1b (1:3000), guinea-pig anti-Lmx1b (1:1500), rabbit anti-UCN (1:200), goat anti-CRHR1 (1:100), rabbit anti-CRHR2 (1:250), mouse anti-Nurr1 (1:100), rabbit anti-Nurr1 (1:100), and mouse anti-TH (1:2000). After washing with PBS, secondary antibodies conjugated to the FITC or rhodamine were applied to sections for 1 h. Sections were examined with fluorescent microscope or confocal microscope. Quantitative cell counts were performed in every third section through the entire A9-A10 populations in 5-10 embryos per condition.

midbrain explants = assay: Midbrain explant cultures, TH+ cell numbers; type: cell-based, rat; conditions: UCN, 3 days
Description: Midbrain explants were dissected from E13.5 embryos by the method known by a person skilled in the art, for example as the protocol described by Baizabal and Covarrubias (2009) and performed with some modifications.
The dorsal midline of the explants was cut and the tissue was placed on porous (0.4 μm) transparent membrane inserts (25-mm in diameter, Nunc, Roskilde, Denmark) with the ventricular surface facing up. Inserts were then placed into six-well culture plates. Each well contained 1.5 mL of MEM medium supplemented with 10% FBS, 100 U/mL penicillin, and 100 μg/mL streptomycin. Explants were incubated at 37° C. with 5% CO2 for 4 hours, after which the explants were incubated in a serum-free DMEM/F12/N2 medium with or without UCN for 3 days. Midbrain explants were then fixed with 4% paraformaldehyde and immuno-histochemical analysis was performed.

Substance: Urocortin [UCN]
- L-aromatic amino acid decarboxylase (AADC) mRNA (VM precursor cultures; 1 μM UCN, 4 days): trends were found for increased
- dopamine transporter (DAT) mRNA (VM precursor cultures; 1 μM UCN, 4 days): trends were found for increased
- Foxa2 mRNA expression (VM precursor cultures; UCN): upregulated
- Nurr1 mRNA expression (VM precursor cultures; UCN): upregulated
- Pitx3 mRNA expression (VM precursor cultures; UCN): upregulated
- TH mRNA expression (VM precursor cultures; UCN vs control medium): significantly elevated
- mRNA expression specific for GABAergic neurons (GAD67) (VM precursor cultures; UCN vs control medium): no effect
- mRNA expression specific for glutamatergic neurons (VGULT1) (VM precursor cultures; UCN vs control medium): no effect
- mRNA expression specific for serotonergic neurons (SERT) (VM precursor cultures; UCN vs control medium): no effect
- DAT gene expression [1]: increased gene expression
- TH gene expression [1]: increased gene expression
- VMAT2 gene expression [1]: increased gene expression
- DA neuronal function as assessed by DA uptake [2]: increased DA neuronal function
- proportion of TH+/Nurr1+ cells in the VM (VM of E16.5 rat embryos; UCN treated vs saline-treated embryos, E16.5): significant proportion of the Nurr1+ cells differentiate into TH+ neurons
- number of ventral mesencephalic TH+ cells (VM of E16.5 rat embryos; pregnant rats, 10 μg/kg UCN i.p. every 24 hours for 4 days, E16.5 embryos): increased number
- Nurr1+ cell numbers in the VM (VM of E16.5 rat embryos; saline vs UCN-treated embryos, E16.5): no significant difference
- number of TH+ cells in midbrain explants (midbrain explants): increases

Reference: US20160355782A1, “METHOD FOR ENHANCING DIFFERENTIATION OF DOPAMINERGIC NEURONS” (Buddhist Tzu Chi Medical Foundation, priority 2015, published 2016)
